Results taken from DBAASP.
≈ marks a conversion by molar mass, not a printed value. Where “and” joins values, the source holds several entries; their conditions need not be identical. Identical values can stand only once. Each block holds one compound with its values, some of them ahead of it.

Key:
Assay in all cases: ≥ marks a high value that may be exact or a test limit, other limits are often not marked, values filed in µg/mL are converted to µM
[1] = tested on: Escherichia coli ATCC 25922
[2] = tested on: Bacillus subtilis ATCC 6633
[3] = tested on: Saccharomyces cerevisiae CGMCC 2.3973
[4] = tested on: Pseudomonas aeruginosa ATCC 27853
[5] = tested on: Staphylococcus aureus ATCC 25923
[6] = tested on: Escherichia coli D31
[7] = tested on: Klebsiella pneumoniae ATCC 700603
[8] = tested on: Pseudomonas aeruginosa ATCC 10145
[9] = tested on: Staphylococcus aureus ATCC 27660
[10] = tested on: Staphylococcus aureus E4049
[11] = tested on: Staphylococcus aureus 5118
[12] = tested on: Staphylococcus aureus 3968
[13] = tested on: Staphylococcus aureus ATCC 9144
[14] = tested on: Staphylococcus aureus CCARM 3090
[15] = tested on: Bacillus subtilis KCTC 3068
[16] = tested on: Salmonella typhimurium KCTC 1926
[17] = tested on: Staphylococcus aureus CCARM 3095
[18] = tested on: Pseudomonas aeruginosa KCTC 1637
[19] = tested on: Pseudomonas aeruginosa CCARM 2095
[20] = tested on: Staphylococcus aureus CCARM 3089
[21] = tested on: Escherichia coli KCTC 1682
[22] = tested on: Staphylococcus epidermidis KCTC 1917
[23] = tested on: Pseudomonas aeruginosa CCARM 2109
[24] = tested on: Enterococcus faecium ATCC 51559
[25] = tested on: Trichosporon beigelii KCTC 7707
[26] = tested on: Escherichia coli CCARM 1238
[27] = tested on: Pseudomonas aeruginosa 4007
[28] = tested on: Candida albicans KCTC 7270
[29] = tested on: Pseudomonas aeruginosa 4891
[30] = tested on: Staphylococcus aureus CCARM 3518
[31] = tested on: Bacillus subtilis KCTC 1998
[32] = tested on: Listeria monocytogenes KCTC 3710
[33] = tested on: Escherichia coli CCARM 1229
[34] = tested on: Staphylococcus aureus LAC
[35] = tested on: Pseudomonas syringae pv. syringae EPS 94
[36] = tested on: Xanthomonas fragariae Xf349-9A
[37] = tested on: Pseudomonas syringae pv. actinidiae Psa3700.1.1
[38] = tested on: Xanthomonas arboricola pv. pruni CFBP 5563
[39] = tested on: Erwinia amylovora PMV 6076
[40] = tested on: Xanthomonas campestris pv. Vesicatoria 2133-2

SMILES: CC[C@H](C)[C@H](NC(=O)CNC(=O)[C@@H](NC(=O)[C@H](CCCCN)NC(=O)[C@@H](NC(=O)[C@H](CCCCN)NC(=O)[C@H](CCCCN)NC(=O)[C@H](CC(=O)O)NC(=O)CNC(=O)[C@H](C)N)[C@@H](C)CC)[C@@H](C)CC)C(=O)N[C@@H](CC(N)=O)C(=O)NCC(=O)N[C@@H](Cc1ccccc1)C(=O)NCC(=O)N[C@@H](CCCN=C(N)N)C(=O)N[C@H](C(=O)NCC(=O)N[C@@H](CCCN=C(N)N)C(=O)N[C@@H](CC(C)C)C(=O)O)[C@@H](C)CC [AGDKKIKIGINGFGRIGRL]
MIC [1]: 31.8 µM (≈ 64 µg/mL)
MIC [2]: ≥ 254 µM
MIC [3]: ≥ 254 µM
MIC [4]: > 254 µM
MIC [5]: 254 µM (≈ 512 µg/mL)

SMILES: CC[C@H](C)[C@H](NC(=O)CNC(=O)[C@H](CCCCN)NC(=O)[C@H](Cc1ccccc1)NC(=O)[C@H](CC(C)C)NC(=O)[C@H](CCCCN)NC(=O)[C@H](CCCCN)NC(=O)[C@H](C)NC(=O)[C@H](CCCCN)NC(=O)[C@H](CCCCN)NC(=O)[C@H](Cc1c[nH]c2ccccc12)NC(=O)CNC(=O)[C@H](CCCCN)NC(=O)[C@H](C)NC(=O)[C@H](Cc1ccccc1)NC(=O)[C@@H](NC(=O)[C@H](CCCCN)NC(=O)[C@@H](NC(=O)[C@H](CC(C)C)NC(=O)[C@H](CCCCN)NC(=O)[C@@H](N)CCCCN)[C@@H](C)CC)C(C)C)C(=O)NCC(=O)O [KKLIKVFAKGWKKAKKLFKGIG]
MIC [6]: 0.94 µM (≈ 2.37 µg/mL)
MIC [7]: 1.88 µM (≈ 4.73 µg/mL)
MIC [8]: 1.88 µM (≈ 4.73 µg/mL)
MIC [9]: 0.47 µM (≈ 1.18 µg/mL)

SMILES: CC[C@H](C)[C@H](NC(=O)[C@H](CCCCN)NC(=O)[C@H](CCCCN)NC(=O)[C@@H](NC(=O)[C@H](C)NC(=O)[C@H](CCC(=O)O)NC(=O)[C@H](Cc1cnc[nH]1)NC(=O)[C@@H](NC(=O)CNC(=O)[C@H](CCC(N)=O)NC(=O)[C@H](Cc1ccccc1)NC(=O)[C@@H](NC(=O)[C@H](CCCCN)NC(=O)[C@H](CCCCN)NC(=O)[C@H](CC(C)C)NC(=O)[C@H](C)NC(=O)[C@H](CC(N)=O)NC(=O)[C@@H](N)CC(C)C)C(C)C)[C@@H](C)CC)[C@@H](C)CC)C(N)=O [LNALKKVFQGIHEAIKKI]
MIC [25]: 16 µM (≈ 32.8 µg/mL)
MIC [26]: 2 µM (≈ 4.1 µg/mL)
MIC [1]: 2 µM (≈ 4.1 µg/mL)
MIC [14]: 4 µM (≈ 8.2 µg/mL)
MIC [27]: 4 µM (≈ 8.2 µg/mL)
MIC [28]: 16 µM (≈ 32.8 µg/mL)
MIC [29]: 8 µM (≈ 16.4 µg/mL)
MIC [16]: 4 µM (≈ 8.2 µg/mL)
MIC [30]: 4 µM (≈ 8.2 µg/mL)
MIC [4]: 4 µM (≈ 8.2 µg/mL)
MIC [31]: 4 µM (≈ 8.2 µg/mL)
MIC [5]: 4 µM (≈ 8.2 µg/mL)
MIC [32]: 8 µM (≈ 16.4 µg/mL)
MIC [33]: 2 µM (≈ 4.1 µg/mL)

Other lines, results leading:

MIC [10]: 15.5 µM (≈ 38 µg/mL)
MIC [11]: ≥ 125 µM
MIC [12]: ≥ 250 µM
MIC [13]: ≥ 125 µM
SMILES: CSCC[C@H](NC(=O)[C@H](C)NC(=O)[C@H](CC(C)C)NC(=O)[C@@H](N)CCCCN)C(=O)N[C@@H](CO)C(=O)N[C@@H](CCSC)C(=O)N[C@@H](CO)C(=O)N[C@@H](Cc1ccccc1)C(=O)N[C@@H](CC(N)=O)C(=O)N[C@@H](Cc1ccccc1)C(=O)N[C@H](C(=O)N[C@@H](Cc1ccccc1)C(=O)N[C@@H](Cc1ccc(O)cc1)C(=O)N[C@@H](Cc1ccccc1)C(=O)N[C@@H](CCSC)C(=O)N[C@H](C(=O)N[C@@H](CC(N)=O)C(=O)N[C@@H](Cc1ccccc1)C(=O)N[C@@H](CC(=O)O)C(=O)N[C@@H](CC(=O)O)C(=O)O)C(C)C)C(C)C [KLAMSMSFNFVFYFMVNFDD]

MIC [14]: 2 µM (≈ 4.86 µg/mL)
MIC [15]: 8 µM (≈ 19.4 µg/mL)
MIC [16]: 2 µM (≈ 4.86 µg/mL)
MIC [17]: 2 µM (≈ 4.86 µg/mL)
MIC [18]: 2 µM (≈ 4.86 µg/mL)
MIC [19]: 4 µM (≈ 9.72 µg/mL)
MIC [20]: 2 µM (≈ 4.86 µg/mL)
MIC [21]: 4 µM and 8 µM
MIC [22]: 4 µM (≈ 9.72 µg/mL)
MIC [23]: 8 µM (≈ 19.4 µg/mL)
MIC [24]: 4 µM (≈ 9.72 µg/mL)
SMILES: CC[C@H](C)[C@H](NC(=O)[C@H](Cc1ccccc1)NC(=O)[C@H](CCCN=C(N)N)NC(=O)[C@@H](N)CCCCN)C(=O)N[C@@H](CCCCN)C(=O)N[C@@H](Cc1c[nH]c2ccccc12)C(=O)N[C@@H](Cc1ccc(O)cc1)C(=O)N[C@@H](CCCCN)C(=O)N[C@@H](C)C(=O)N[C@@H](Cc1c[nH]c2ccccc12)C(=O)N[C@@H](CC(N)=O)C(=O)N[C@@H](CCCCN)C(=O)N[C@@H](CCCCN)C(=O)N[C@@H](Cc1c[nH]c2ccccc12)C(=O)N[C@@H](CCCN=C(N)N)C(=O)N[C@@H](CCCCN)C(=O)N[C@@H](Cc1ccc(O)cc1)C(N)=O [KRFIKWYKAWNKKWRKY]

MIC [1]: 20.3 µM (≈ 32 µg/mL)
MIC [34]: 10.2 µM (≈ 16 µg/mL)
SMILES: NC(N)=NCCC[C@H](NC(=O)[C@H](CCCN=C(N)N)NC(=O)[C@H](CCCN=C(N)N)NC(=O)[C@@H](N)CCCN=C(N)N)C(=O)N[C@@H](Cc1c[nH]c2ccccc12)C(=O)N[C@@H](Cc1c[nH]c2ccccc12)C(=O)N[C@@H](Cc1c[nH]c2ccccc12)C(=O)N[C@@H](Cc1c[nH]c2ccccc12)C(=O)N[C@@H](Cc1c[nH]c2ccccc12)C(=O)O [RRRRWWWWW]

MIC [35]: ≥ 50 µM
MIC [36]: ≥ 50 µM
MIC [37]: ≥ 50 µM
MIC [38]: ≥ 50 µM
MIC [39]: ≥ 50 µM
MIC [40]: ≥ 50 µM
SMILES: CC(C)[C@H](N)C(=O)N[C@@H](Cc1c[nH]c2ccccc12)C(=O)N[C@@H](CC(N)=O)C(=O)N[C@@H](CCC(N)=O)C(=O)N1CCC[C@H]1C(=O)N[C@H](C(=O)N[C@@H](CCCN=C(N)N)C(=O)NCC(=O)N[C@@H](Cc1ccccc1)C(=O)N[C@@H](CCCCN)C(=O)N[C@H](C(=O)N[C@@H](Cc1ccc(O)cc1)C(=O)N[C@@H](CCC(=O)O)C(=O)O)C(C)C)C(C)C [VWNQPVRGFKVYE]
